What was measured:
[1] = system: arthritis pain in the rat; test: arthritis pain test in the rat (Test A); type: in vivo; conditions: po
Procedure: (A) the arthritis pain test in the rat [based on the method of A. W. Pircio et al., Eur. J. Pharmacol., 31, 207-215 (1975)] at dosages of from 3 to 50 mg/kg p.o.; and […]

inflamed rat-hind-paw = test: Randall-Selitto test on the inflamed rat-hind-paw (Test B); type: in vivo; conditions: po
Procedure: (B) the Randall-Selitto test on the inflamed rat-hind-paw [Arch. Int. Pharmacodyn. 61, 409-419 (1957)] at dosages of from 20 to 200 mg/kg p.o..

SMILES	ED50 [1] [mg/kg]	ED50 (inflamed rat-hind-paw) [mg/kg]
CCOc1ccc2c(c1)C(C)(C)CN2 [I, 3,3-Dimethyl-5-ethoxy-indoline]	18	133
CCOc1ccc2c(c1)NCC2(C)C [II, 3,3-Dimethyl-6-ethoxy-indoline]	7	78
CC(=O)Nc1ccc(O)cc1 [III, Paracetamol, reference compound]	174	

From US4622336A, “3,3-dialkyl-and 3,3-alkylene-indoline derivatives, processes for their production and pharmaceutical compositions comprising them” (Sandoz Ltd., priority 1982, dated 1986)
